The subject of test [1] is IL-6 secretion in BV-2 cell. In words: IL-6 Secretion in BV-2 Cell (L18-MDP stimulated, ELISA). The test is classed as cell-based. The note with it: BV-2 mouse microglia cells, 10 µg/ml L18-MDP, 24 hr. The method, then: IL-6 Secretion in BV-2 Cell
BV-2 mouse microglia cells were kindly provided from Dr. Bae in Korea Institute of Science and Technology (KIST). BV-2 cells were thawed and suspended in Dulbecco’s modified eagle medium (DMEM) supplemented with 10% fetal bovine serum (FBS) and 1% Penicillin/Streptomycin. Cells were seeded into 96 well plates at 2X10^4 cells/well and allowed to attach for 24 hr. On the day of the experiment, various concentration of compounds were treated, and cells were stimulated with 10 µg/ml L18-MDP. After 24 hr incubation, supernatant was collected for cytokine assay.
Absorbance at 450 nm was measured using SpectraMax I3X microplate reader (Molecular Device). Values of media-only wells were subtracted and % inhibition for each compound concentration relative to the DMSO/L18-MDP-treated controls (100%) was calculated.

For test [2], the target named is GST-tagged recombinant human RIPK2 (Homo sapiens (Human), UniProt O43353). The test is described as follows: RIP2 Kinase Assay (ADP-Glo). Format: biochemical. The note with it: 25 µM ATP, MBP substrate, 30° C. 60 minutes.
Sequence of GST-tagged recombinant human RIPK2 (O43353 whole entry): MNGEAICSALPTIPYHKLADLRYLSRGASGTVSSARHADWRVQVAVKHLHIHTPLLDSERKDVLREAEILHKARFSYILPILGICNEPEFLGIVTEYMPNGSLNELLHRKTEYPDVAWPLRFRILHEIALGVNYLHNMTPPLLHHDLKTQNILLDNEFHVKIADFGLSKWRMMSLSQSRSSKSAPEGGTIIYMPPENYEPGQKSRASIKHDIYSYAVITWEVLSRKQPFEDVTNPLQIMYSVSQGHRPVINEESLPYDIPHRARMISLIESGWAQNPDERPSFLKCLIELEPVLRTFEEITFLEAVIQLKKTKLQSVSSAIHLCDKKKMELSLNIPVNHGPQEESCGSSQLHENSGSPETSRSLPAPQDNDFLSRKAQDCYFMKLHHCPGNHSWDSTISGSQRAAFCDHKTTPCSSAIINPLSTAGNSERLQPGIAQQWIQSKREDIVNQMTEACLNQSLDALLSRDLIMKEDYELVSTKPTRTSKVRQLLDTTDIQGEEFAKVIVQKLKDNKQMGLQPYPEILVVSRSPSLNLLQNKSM
Procedure: GST-tagged recombinant human RIPK2(25 ng) is incubated with 5 µL of compounds (0.5% DMSO), 5 µL of MBP (0.5 µg/µl) and 5 µL of ATP (25 µM) in buffer (40 mM Tris, 7.5; 20 mM MgCl2; 0.1 mg/ml BSA; 50 µM DTT). The assay was started by incubating the reaction mixture in a 96-well plate at 30° C. for 60 minutes. After the incubation, 25 µL ADP-Glo reagent was added, and the reaction was incubated at 30° C. for 40 minutes to stop the reaction and degrade residual ATP. The ADP product was then converted to ATP by adding 50 µL per well of detection reagent. Luminescence was detected after 30 minutes room temperature incubation with the Molecular device I3X plate reader. The IC50 values were calculated from a series of percent inhibition values determined at a range of inhibitor concentration using software routines as implemented in the GraphPad Prism 7 software or SigmaPlot 13.0.
For test [3], the target named is His-tagged recombinant human ABL1 (Homo sapiens (Human), UniProt P00519). The note with it: read-out: c-Abl IC50; 25 µM ATP, Abltide substrate, 30° C. 30-min.
Sequence of His-tagged recombinant human ABL1 (P00519 whole entry): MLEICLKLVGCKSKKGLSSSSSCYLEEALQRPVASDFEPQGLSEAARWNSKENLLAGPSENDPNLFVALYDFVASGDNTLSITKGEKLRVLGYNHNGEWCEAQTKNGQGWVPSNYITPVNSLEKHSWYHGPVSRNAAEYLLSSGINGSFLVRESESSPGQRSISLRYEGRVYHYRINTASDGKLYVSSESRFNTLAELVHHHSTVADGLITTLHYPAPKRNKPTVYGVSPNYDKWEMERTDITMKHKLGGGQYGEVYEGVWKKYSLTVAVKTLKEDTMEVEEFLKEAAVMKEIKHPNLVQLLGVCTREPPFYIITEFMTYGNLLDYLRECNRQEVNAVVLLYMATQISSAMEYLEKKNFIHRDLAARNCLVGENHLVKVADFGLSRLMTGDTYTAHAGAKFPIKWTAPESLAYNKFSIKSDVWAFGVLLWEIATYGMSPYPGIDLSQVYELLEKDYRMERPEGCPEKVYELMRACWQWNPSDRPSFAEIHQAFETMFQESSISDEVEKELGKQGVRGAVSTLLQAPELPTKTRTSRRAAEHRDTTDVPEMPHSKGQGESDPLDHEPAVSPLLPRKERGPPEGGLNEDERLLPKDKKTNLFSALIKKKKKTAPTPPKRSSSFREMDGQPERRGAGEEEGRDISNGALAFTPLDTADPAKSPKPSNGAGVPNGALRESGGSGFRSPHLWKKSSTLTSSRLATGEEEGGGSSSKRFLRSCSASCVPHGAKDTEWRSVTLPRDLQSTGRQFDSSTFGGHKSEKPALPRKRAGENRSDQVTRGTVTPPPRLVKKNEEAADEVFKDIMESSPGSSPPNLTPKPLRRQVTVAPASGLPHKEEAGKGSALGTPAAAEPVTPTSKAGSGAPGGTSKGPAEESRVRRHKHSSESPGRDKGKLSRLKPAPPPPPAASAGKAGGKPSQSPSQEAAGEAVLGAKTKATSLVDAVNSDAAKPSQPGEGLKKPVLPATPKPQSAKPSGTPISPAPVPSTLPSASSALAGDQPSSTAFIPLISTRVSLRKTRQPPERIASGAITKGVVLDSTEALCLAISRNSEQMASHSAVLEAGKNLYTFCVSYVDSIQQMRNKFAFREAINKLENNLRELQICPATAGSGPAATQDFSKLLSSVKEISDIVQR
Procedure: ADP-Glo assay kit was purchased from Promega. Magnesium chloride (MgCl2), bovine serum albumin (BSA), ethylene glycol-bis(β-aminoethyl ether)-N,N,N′,N′-tetraacetic acid (EGTA), tween-20, 1,4-dithiothreitol (DTT) and dimethyl sulfoxide (DMSO) were purchased from Sigma-Aldrich. HEPES buffer was purchased from Gibco. ABL1 kinase and Abltide were purchased from Signalchem.
c-Abl kinase activity was measured by Promega’s ADP-Glo ® Assay. In this assay, His-tagged recombinant human ABL1 (0.25 ng/µl) is incubated with 5 µL of compounds (0.5% DMSO), 5 µL of Abltide (0.01 µg/µl) and 5 µL of ATP (25 µM) in buffer (50 mM HEPES,7.5; 10 mM MgCl2; 1 mM EGTA; 0.05% BSA; 0.01% Tween-20; 2 mM DTT.). The assay was started by incubating the reaction mixture in a 96-well plate at 30° C. for 30-min. After the incubation, 25 µL ADP-Glo reagent was added and the reaction was incubated at room temperature for 40-min to stop the reaction and degrade residual ATP. The ADP product was then converted to ATP by adding 50 µL per well of detection reagent. Luminescence was detected after 30-min room temperature incubation with the Molecular device I3X plate reader. The IC50 values were calculated from a series of percent inhibition values determined at a range of inhibitor concentration using software routines as implemented in the GraphPad Prism 7 software and Sigma Plot 13.0.

Among the data in patent US20230339978A1, “COMPOUNDS FOR PREVENTION OR TREATMENT OF NEURODEGENERATIVE DISORDERS” (1ST Biotherapeutics, Inc., priority 2020, published 2023) are IC50 values, retold here.

One may read the IC50 as the concentration that gives 50% inhibition. `Cc1nc2[nH]ccc2cc1-c1ccn2nc(NC(=O)[C@@H]3C[C@@H]3F)cc2c1` [Example 3, (1S,2S)-2-fluoro-N-(5-(6-methyl-1 H-pyrrolo[2,3-b]pyridin-5-yl)pyrazolo[1,5-a]pyridin-2-yl)cyclopropane-1-carboxamide]: the IC50 stood at 332 nM in test [1], 25 nM in test [2] and 0.7 nM in test [3].

Take `O=C(Nc1cc2cc(-c3cc4cc[nH]c4nc3Cl)ccn2n1)[C@@H]1C[C@@H]1F` [Example 4, (1S,2S)-N-(5-(6-chloro-1H-pyrrolo[2,3-b]pyridin-5-yl)pyrazolo[1,5-a]pyridin-2-yl)-2-fluorocyclopropane-1-carboxamide]: the values for the IC50 in test [1], in test [2] and in test [3] were 351 nM, 13.9 nM and 1.2 nM, respectively.

For `O=C(Nc1cc2cc(-c3cnc4[nH]ccc4c3F)ccn2n1)[C@@H]1C[C@@H]1F` [Example 5, (1 S,2S)-2-fluoro-N-(5-(4-fluoro-1 H-pyrrolo[2,3-b]pyridin-5-yl)pyrazolo[1,5-a]pyridin-2-yl)cyclopropane-1-carboxamide], the IC50 in test [1] is 600 nM; in test [2] it was 48.4 nM; in test [3] it was 11.2 nM.

For `COc1c(-c2ccn3nc(NC(=O)[C@@H]4C[C@@H]4F)cc3c2)cnc2[nH]ccc12` [Example 6, (1S,2S)-2-fluoro-N-(5-(4-methoxy-1H-pyrrolo[2,3-b]pyridin-5-yl)pyrazolo[1,5-a]pyridin-2-yl)cyclopropane-1-carboxamide], the results for the IC50 in test [1], in test [2] and in test [3] were 806 nM, 168 nM and 9 nM, respectively.

Turning to `O=C(Nc1cc2cc(-c3cnc4[nH]cc(F)c4c3)ccn2n1)[C@@H]1C[C@@H]1F` [Example 7, (1S,2S)-2-fluoro-N-(5-(3-fluoro-1 H-pyrrolo[2,3-b]pyridin-5-yl)pyrazolo[1,5-a]pyridin-2-yl)cyclopropane-1-carboxamide], the results for the IC50 in test [1], in test [2] and in test [3] were 732 nM, 24.3 nM and 3.6 nM, respectively.

Turning to `Cc1cc2cc(-c3ccn4nc(NC(=O)[C@@H]5C[C@@H]5F)cc4c3)cnc2[nH]1` [Example 8, (1S,2S)-2-fluoro-N-(5-(2-methyl-1H-pyrrolo[2,3-b]pyridin-5-yl)pyrazolo[1,5-a]pyridin-2-yl)cyclopropane-1-carboxamide], the values for the IC50 in test [1], in test [2] and in test [3] were 625 nM, 84.3 nM and 4 nM, respectively.

On to `Cc1c(-c2ccn3nc(NC(=O)[C@@H]4C[C@@H]4F)cc3c2)cnc2[nH]ccc12` [Example 9, (1S,2S)-2-fluoro-N-(5-(4-methyl-1H-pyrrolo[2,3-b]pyridin-5-yl)pyrazolo[1,5-a]pyridin-2-yl)cyclopropane-1-carboxamide], for which the IC50 stood at 101 nM in test [1], 8.77 nM in test [2] and 3.1 nM in test [3].

Regarding `Nc1c(-c2ccn3nc(NC(=O)[C@@H]4C[C@@H]4F)cc3c2)cnc2[nH]ccc12` [Example 10, (1S,2S)-N-(5-(4-amino-1H-pyrrolo[2,3-b]pyridin-5-yl)pyrazolo[1,5-a]pyridin-2-yl)-2-fluorocyclopropane-1-carboxamide], the IC50 in test [1] was 3940 nM; in test [2], 91.5 nM; in test [3], 54.2 nM.

`O=C(Nc1cc2cc(-c3cnc4[nH]cc(Cl)c4c3)ccn2n1)[C@@H]1C[C@@H]1F` [Example 11, (1S,2S)-N-(5-(3-chloro-1H-pyrrolo[2,3-b]pyridin-5-yl)pyrazolo[1,5-a]pyridin-2-yl)-2-fluorocyclopropane-1-carboxamide]: the IC50 amounted to 654 nM in test [1], 33.4 nM in test [2] and 3.2 nM in test [3].

`CCc1c(-c2ccn3nc(NC(=O)[C@@H]4C[C@@H]4F)cc3c2)cnc2[nH]ccc12` [Example 13, (1S,2S)-N-(5-(4-ethyl-1H-pyrrolo[2,3-b]pyridin-5-yl)pyrazolo[1,5-a]pyridin-2-yl)-2-fluorocyclopropane-1-carboxamide]: the IC50 worked out at 129 nM in test [2] and 12.3 nM in test [3].

Turning to `CSc1c(-c2ccn3nc(NC(=O)[C@@H]4C[C@@H]4F)cc3c2)cnc2[nH]ccc12` [Example 14, (1S,2S)-2-fluoro-N-(5-(4-(methylthio)-1H-pyrrolo[2,3-b]pyridin-5-yl)pyrazolo[1,5-a]pyridin-2-yl)cyclopropane-1-carboxamide], the IC50 in test [2] was found to be 195 nM; in test [3], 12.2 nM.

Take `CC(C)c1c(-c2ccn3nc(NC(=O)[C@@H]4C[C@@H]4F)cc3c2)cnc2[nH]ccc12` [Example 15, (1S,2S)-2-fluoro-N-(5-(4-isopropyl-1H-pyrrolo[2,3-b]pyridin-5-yl)pyrazolo[1,5-a]pyridin-2-yl)cyclopropane-1-carboxamide]: the IC50 was determined as 828 nM in test [2] and 159 nM in test [3].

With `O=C(Nc1cc2cc(-c3cnc4[nH]ccc4c3C3CC3)ccn2n1)[C@@H]1C[C@@H]1F` [Example 16, (1S,2S)-N-(5-(4-cyclopropyl-1 H-pyrrolo[2,3-b]pyridin-5-yl)pyrazolo[1,5-a]pyridin-2-yl)-2-fluorocyclopropane-1-carboxamide], the half-inhibitory concentration (IC50) in test [2] was found to be 204 nM; in test [3] it was 13 nM.

As to `N#Cc1c(-c2ccn3nc(NC(=O)[C@@H]4C[C@@H]4F)cc3c2)cnc2[nH]ccc12` [Example 17, (1S,2S)-N-(5-(4-cyano-1H-pyrrolo[2,3-b]pyridin-5-yl)pyrazolo[1,5-a]pyridin-2-yl)-2-fluorocyclopropane-1-carboxamide], the IC50 in test [2] was determined as 70.2 nM; in test [3] it was 20.2 nM.

For `O=C(Nc1cc2cc(-c3cnc4[nH]c(Cl)cc4c3)ccn2n1)[C@@H]1C[C@@H]1F` [Example 18, (1S,2S)-N-(5-(2-chloro-1H-pyrrolo[2,3-b]pyridin-5-yl)pyrazolo[1,5-a]pyridin-2-yl)-2-fluorocyclopropane-1-carboxamide], the IC50 in test [2] is 30.5 nM; in test [3], 3.6 nM.

For `O=C(Nc1cc2cc(-c3cnc4[nH]ccc4c3Cl)ccn2n1)C1CC1` [Example 23, N-(5-(4-chloro-1H-pyrrolo[2,3-b]pyridin-5-yl)pyrazolo[1,5-a]pyridin-2-yl)cyclopropanecarboxamide], the IC50 in test [2] turned out to be 19.9 nM; in test [3], 9.2 nM.

Take `Cc1c(-c2ccn3nc(NC(=O)[C@@H]4C[C@@H]4F)cc3c2)cnc2[nH]cc(Cl)c12` [Example 25, (1S,2S)-N-(5-(3-chloro-4-methyl-1H-pyrrolo[2,3-b]pyridin-5-yl)pyrazolo[1,5-a]pyridin-2-yl)-2-fluorocyclopropane-1-carboxamide]: the concentration for half-maximal inhibition (IC50) in test [2] was 32.2 nM; in test [3] it was 1.7 nM.

With `O=C(Nc1cc2cc(-c3cnc4[nH]ccc4c3Cl)ccn2n1)[C@@H]1C[C@H]1F` [Example 26, (1S,2R)-N-(5-(4-chloro-1H-pyrrolo[2,3-b]pyridin-5-yl)pyrazolo[1,5-a]pyridin-2-yl)-2-fluorocyclopropane-1-carboxamide], the figures for the half-maximal inhibitory concentration (IC50) in test [2] and in test [3] were 16.1 nM and 19.4 nM, respectively.

For `O=C(Nc1cc2cc(-c3cnc4[nH]ccc4c3Cl)ccn2n1)[C@H]1C[C@H]1F` [Example 28, (1R,2R)-N-(5-(4-chloro-1H-pyrrolo[2,3-b]pyridin-5-yl)pyrazolo[1,5-a]pyridin-2-yl)-2-fluorocyclopropane-1-carboxamide], the 50% inhibitory concentration (IC50) was 21.5 nM in test [2] and 13.9 nM in test [3].
